Data from a melting point compilation (Tetko et al.; mined from patent text by program, amines drawn as free bases though some values may be those of a salt).

| melting point [°C] | Compound |
| --- | --- |
| 183 to 184 | CS(=O)(=O)c1ccc(-c2nn3c4c(oc3c2-c2ccc(F)cc2)CCCC4)cc1 |
| 144 | CC(=O)OCc1nc2cc3c(cc2c(=O)n1COC(=O)C(C)(C)C)C(=O)CC3 |
| 302 to 304 | Oc1cccc(-c2n[nH]c3c2Cc2ccccc2-3)c1 |
| 59 to 61 | CCOC(=O)c1snnc1C |
| 184 | CCCn1c(CCO)nc2c(N)nc3cc(OCCCNC(=O)c4cccnc4)ccc3c21 |
| 171 to 173 | CC(COc1ccc(N2N=C3c4ccccc4SCC3CC2=O)cc1)N(C)C (configuration not stated) |
| 122 to 124 | CN(C)CCCC1(O)c2ccccc2CCc2c(C3(C)OCCO3)cccc21 (configuration not stated) |
| 168 to 171 | CC1=NC(NC(=O)Nc2cccc(Br)c2)C(=O)N(CC(=O)N2CC3CCC(CC3)C2)c2c(C)cccc21 (configuration not stated) |
| 204 to 207 | COc1cc(Cl)c2c(c1)C=C(C(=O)O)C(C(F)(F)F)O2 (configuration not stated) |
| 186 to 187 | O=C(O)c1cc(OCCCOc2ccc(-c3ccccc3)cc2)cc(OCCCOc2ccc(-c3ccccc3)cc2)c1 |
| 188 | CCCc1nc2c(NOC)nc(C(c3ccccc3)(c3ccccc3)c3ccccc3)nc2n1CO |
| 191 to 193 | Nc1sc2c(c1C(=O)c1ccccn1)CCCC2 |
| 214 to 216 | CC(C)c1nc(COC(N)=O)n(Cc2cnc3ccccc3c2)c1Sc1cc(Cl)cc(Cl)c1 |
| 204 to 205 | O=C(Nc1c[nH]nc1C(=O)NCc1ccccc1)c1ccccn1 |
| 59 to 62 | COc1ccc(CCCN(Cc2ccccc2)C[C@@H](O)c2ccc(OCc3ccccc3)c(OCc3ccccc3)c2)cc1 |
| 185 to 187 | O=C(NCc1ccccc1)c1ccnc(NC(=O)c2cc(F)cc(F)c2)c1 |
| 171 to 173 | O=C(Nc1cc2ncc(CN3CCCC3)cc2cc1N1CCCC1)c1ccc(Br)cc1 |
| 66 to 68 | CCOC(=O)CC(=O)Nc1ccc(F)cc1F |
| 151 to 153 | Cc1cccc(C(=NO)c2ccc(OCCOc3ccc(C(=NO)c4cccc(C)c4)cc3)cc2)c1 |

| melting point [°C] | Compound |
| --- | --- |
| 192 | CC1=C(C(=O)OC(C)(C)C)C(c2ccc(Cl)cc2)C(C(=O)OC(C)(C)C)=C(C)N1 |
| 188 | N#Cc1ccc(NC2CCN(Cc3cc(F)cc(F)c3)CC2)nn1 |
| 107 | O=C(c1ccccc1)c1nc(Cl)ccc1[N+](=O)[O-] |
| 111 to 112 | COc1ccc(C=CC(=O)c2c(OC)cc(OC)cc2OC(=O)c2ccc(OC)cc2)cc1 |
| 163 | CC(C)(O)C(=O)N[C@H]1CC[C@H](CCN2CCC(c3cccc4c3CCO4)CC2)CC1 |
| 214 to 216 | CN(C)C(=O)N1CCN(Cc2ccc3c(c2)-c2[nH]nc(-c4ccsc4)c2C3)CC1 |
| 106 | COc1cc(/C=C/C(=O)CC(=O)Cc2ccccc2)ccc1O |
| 117 | CCOC(=O)C1=NNC(C)=C(C(=O)OCC)C1c1cccc([N+](=O)[O-])c1 (configuration not stated) |
| 30 to 32 | CCCCCCCCCCCCC1N(C)c2cccc3cccc(c23)N1C |
| 187 to 191 | CN(C(=O)Nc1c(F)cc(F)cc1CCc1cc(C(C)(C)C)c(O)c(C(C)(C)C)c1)C1CCN(Cc2ccccc2)CC1 |
| 189 to 191 | O=S1(=O)N=CN(C2CCCCC2)c2cc(Cl)ccc21 |
| 144 to 145 | CCCC(=O)c1cnc2c(OCCOCCO)cccc2c1Nc1ccc(F)cc1C |
| 80 | CC(C)(C)c1ccc(C2=NC[C@@H](OC(=O)Nc3ccccc3)[C@H](c3ccccc3)O2)cc1 (racemic) |
| 192 | N#Cc1c(N2CCN(C(=O)c3cccs3)CC2)c2cccnc2n(C2CCCCC2)c1=O |
| 127 to 130 | CC(C)(C)c1cc(C(=O)c2ncco2)cc(C(C)(C)C)c1O |
| 239 to 240 | CC(NC(=O)C(O)c1cc(F)cc(F)c1)C(=O)Nc1ccc2c(c1)NC(=O)Cc1cccn1-2 (configuration not stated) |
| 123 to 124 | COC(=O)C(Cc1c[nH]c2ccccc12)NC(=O)c1ccc2c(c1)OCO2 (configuration not stated) |
| 108 to 110 | O=C(O)c1ccc(F)c(C(F)(F)F)c1F |
